pIC50: −log10 of the molar value.
Target: T1, PI3Kα (p110α/p85α) (Homo sapiens, UniProt P42336)
T1 construct: purchased BPS Bioscience (San Diego, Calif.) or Millipore (Billerica, Mass.)
Assay: HTRF assay, potency against active PI3Kα
Type: biochemical
Conditions: HTRF; [ATP]=50 μM, [di-C8-PIP2]=10 μM; 30 min pre-incubation; read-out: PI3Kα Inhibition
How it was run: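 IC50 came from a variable-slope fit of % inhibition, calculated from the HTRF emission ratio relative to wells with and without enzyme. Reactions with the active enzyme complex ran 30-60 minutes at 25 °C after ATP addition before stop and detection reagents.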

T1 sequence (P42336 whole entry): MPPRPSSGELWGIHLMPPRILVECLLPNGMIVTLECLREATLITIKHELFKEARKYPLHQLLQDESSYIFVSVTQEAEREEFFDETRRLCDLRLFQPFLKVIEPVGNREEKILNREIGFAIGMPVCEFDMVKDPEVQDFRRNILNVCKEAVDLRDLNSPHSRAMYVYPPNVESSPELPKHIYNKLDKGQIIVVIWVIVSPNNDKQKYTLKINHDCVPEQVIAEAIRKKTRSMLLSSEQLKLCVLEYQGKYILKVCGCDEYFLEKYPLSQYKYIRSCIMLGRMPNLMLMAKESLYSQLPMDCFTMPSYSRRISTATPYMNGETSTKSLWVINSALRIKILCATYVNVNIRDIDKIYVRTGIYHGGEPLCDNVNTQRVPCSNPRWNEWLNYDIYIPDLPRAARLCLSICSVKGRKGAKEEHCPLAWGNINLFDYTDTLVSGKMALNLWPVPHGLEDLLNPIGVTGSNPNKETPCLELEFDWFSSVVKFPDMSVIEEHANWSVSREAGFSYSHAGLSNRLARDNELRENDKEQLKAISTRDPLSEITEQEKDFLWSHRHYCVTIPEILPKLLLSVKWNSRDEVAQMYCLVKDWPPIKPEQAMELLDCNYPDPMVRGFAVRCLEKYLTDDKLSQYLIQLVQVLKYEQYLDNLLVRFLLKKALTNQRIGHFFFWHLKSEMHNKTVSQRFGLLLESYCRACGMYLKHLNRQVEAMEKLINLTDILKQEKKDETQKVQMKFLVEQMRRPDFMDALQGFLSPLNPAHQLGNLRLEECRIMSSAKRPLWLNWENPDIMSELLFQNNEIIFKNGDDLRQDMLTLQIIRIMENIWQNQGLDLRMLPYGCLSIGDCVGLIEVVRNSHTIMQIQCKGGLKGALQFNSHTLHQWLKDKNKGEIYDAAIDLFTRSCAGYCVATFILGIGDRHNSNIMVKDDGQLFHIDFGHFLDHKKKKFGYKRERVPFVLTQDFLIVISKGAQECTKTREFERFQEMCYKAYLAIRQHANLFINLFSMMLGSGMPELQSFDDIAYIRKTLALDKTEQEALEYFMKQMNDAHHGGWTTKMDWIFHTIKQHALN
T1 sequence (P27986 whole entry partner): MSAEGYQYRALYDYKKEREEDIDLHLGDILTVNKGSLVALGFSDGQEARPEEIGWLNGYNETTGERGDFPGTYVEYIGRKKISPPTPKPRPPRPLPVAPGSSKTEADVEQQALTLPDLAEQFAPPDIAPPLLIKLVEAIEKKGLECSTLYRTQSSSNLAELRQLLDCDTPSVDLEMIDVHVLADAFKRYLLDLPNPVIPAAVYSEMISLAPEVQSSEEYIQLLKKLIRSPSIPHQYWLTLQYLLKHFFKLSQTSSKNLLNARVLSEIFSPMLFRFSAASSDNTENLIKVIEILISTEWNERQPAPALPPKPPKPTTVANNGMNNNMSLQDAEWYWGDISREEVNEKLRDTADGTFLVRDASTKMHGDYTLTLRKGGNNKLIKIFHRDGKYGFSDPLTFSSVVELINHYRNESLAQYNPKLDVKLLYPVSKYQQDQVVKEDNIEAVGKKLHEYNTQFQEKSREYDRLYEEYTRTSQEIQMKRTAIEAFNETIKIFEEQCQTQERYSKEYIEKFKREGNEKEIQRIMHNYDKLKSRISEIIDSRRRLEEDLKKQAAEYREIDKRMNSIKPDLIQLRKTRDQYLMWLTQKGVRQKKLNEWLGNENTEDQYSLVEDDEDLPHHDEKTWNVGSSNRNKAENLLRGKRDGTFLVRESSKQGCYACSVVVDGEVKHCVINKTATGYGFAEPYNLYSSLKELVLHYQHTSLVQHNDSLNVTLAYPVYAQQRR

Row | pIC50 | Compound
1 | 6.00 to 7.00 | C/C=C(\C)C(=O)CCC(=O)N1CCN(Cc2cc3nc(-c4cccc5[nH]ncc45)nc(N4CCOCC4)c3s2)CC1 [II-a-149, (E)-1-(4-((2-(1H-indazol-4-yl)-4-morpholinothieno[3,2-d]pyrimidin-6-yl)methyl)piperazin-1-yl)-5-methylhept-5-ene-1,4-dione]
2 | 7.00 to 8.00 | C/C=C/C(=O)CCCC(=O)N1CC=C(c2cc3nc(-c4cccc5[nH]ncc45)nc(N4CCOCC4)c3s2)CC1 [II-a-60, (E)-1-(4-(2-(1H-indazol-4-yl)-4-morpholinothieno[3,2-d]pyrimidin-6-yl)-5,6-dihydropyridin-1(2H)-yl)oct-6-ene-1,5-dione]
3 | 6.00 to 7.00 | C=CC(=O)N[C@H]1CCC[C@@H](C(=O)N2CCN(Cc3cc4nc(-c5cccc6[nH]ncc56)nc(N5CCOCC5)c4s3)CC2)C1 [II-a-98]
4 | 6.00 to 7.00 | C/C(=C\c1ccccc1)C(=O)CCC(=O)N1CCN(Cc2cc3nc(-c4cccc5[nH]ncc45)nc(N4CCOCC4)c3s2)CC1 [II-a-168, (E)-1-(4-((2-(1H-indazol-4-yl)-4-morpholinothieno[3,2-d]pyrimidin-6-yl)methyl)piperazin-1-yl)-5-methyl-6-phenylhex-5-ene-1,4-dione]
5 | 6.00 to 7.00 | C=CC(=O)NCCCC(=O)N1CCN(Cc2cc3nc(-c4cccc5[nH]ncc45)nc(N4CCOCC4)c3s2)CC1 [II-a-20, N-(4-(4-((2-(1H-indazol-4-yl)-4-morpholinothieno[3,2-d]pyrimidin-6-yl)methyl)piperazin-1-yl)-4-oxobutyl)acrylamide]
6 | 6.00 to 7.00 | C=CC(=O)Nc1ccc(CN2CCC(n3ncc4c(N5CCOCC5)nc(-c5ccc(NC(=O)NC)cc5)nc43)CC2)cc1 [VII-5, N-(4-((4-(6-(4-(3-methylureido)phenyl)-4-morpholino-1H-pyrazolo[3,4-d]pyrimidin-1-yl)piperidin-1-yl)methyl)phenyl)acrylamide]
7 | > 8.00 | C=CC(=O)Nc1cccc(C(=O)N2CC=C(c3cc4nc(-c5cnc(N)nc5)nc(N5CCOCC5)c4s3)CC2)c1 [II-a-171, N-(3-(4-(2-(2-aminopyrimidin-5-yl)-4-morpholinothieno[3,2-d]pyrimidin-6-yl)-1,2,3,6-tetrahydropyridine-1-carbonyl)phenyl)acrylamide]
8 | < 6.00 | C=CC(=O)Nc1ccc(CCNC(=O)c2cc(-c3cccc4[nH]ncc34)nc(N3CCOCC3)c2)cc1 [XII-13, N-(4-acrylamidophenethyl)-2-(1H-indazol-4-yl)-6-morpholinoisonicotinamide]
9 | < 6.00 | CC(C)=CC(=O)CCCC(=O)N1CC2(CCN(c3cc(-c4cnc(N)nc4)nc(N4CCOCC4)c3)CC2)C1 [XII-44, 1-(7-(2-(2-aminopyrimidin-5-yl)-6-morpholinopyridin-4-yl)-2,7-diazaspiro[3.5]nonan-2-yl)-7-methyloct-6-ene-1,5-dione]
10 | < 6.00 | CC(C)=CC(=O)CCCCC#Cc1cc(-c2cnc(N)cc2C(F)(F)F)nc(N2CCOCC2)c1 [XII-8, 10-(6′-amino-6-morpholino-4′-(trifluoromethyl)-2,3′-bipyridin-4-yl)-2-methyldec-2-en-9-yn-4-one]
11 | < 6.00 | C=CC(=O)Nc1ccc(CCNC(=O)c2cc3nc(-c4cccc5[nH]ncc45)nc(N4CC5(COC5)C4)c3s2)cc1 [II-a-151, N-(4-acrylamidophenethyl)-2-(1H-indazol-4-yl)-4-(2-oxa-6-azaspiro[3.3]heptan-6-yl)thieno[3,2-d]pyrimidine-6-carboxamide]
12 | < 6.00 | C=CC(=O)Nc1ccc(CNC(=O)c2cc(-c3cnc(N)nc3C)nc(N3CCOCC3)c2)cc1 [XII-17, N-(4-acrylamidobenzyl)-2-(2-amino-4-methylpyrimidin-5-yl)-6-morpholinoisonicotinamide]

Reference: patent publication US20110230476A1, “PI3 KINASE INHIBITORS AND USES THEREOF” (AVILA THERAPEUTICS, INC., priority 2009, published 2011)
